# Biological target: T1, His-hMAGL (recombinant polyhistidine tagged human MAGL protein) (Homo sapiens, UniProt Q99685)
# T1 construct: made in house; host or cells: E. coli BL21(DE3)
# T1 sequence (Q99685 1-303): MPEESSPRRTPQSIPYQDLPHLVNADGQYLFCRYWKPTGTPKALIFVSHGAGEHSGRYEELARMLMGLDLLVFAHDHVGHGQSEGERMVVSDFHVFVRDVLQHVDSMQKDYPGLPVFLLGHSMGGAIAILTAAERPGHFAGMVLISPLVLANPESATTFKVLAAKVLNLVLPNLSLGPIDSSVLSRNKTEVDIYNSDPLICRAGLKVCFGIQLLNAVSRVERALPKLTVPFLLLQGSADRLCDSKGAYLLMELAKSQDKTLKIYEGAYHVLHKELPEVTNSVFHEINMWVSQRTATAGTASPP
# Experiment: Measurement of MAGL inhibitory activity (arachidonic acid production from 2-arachidonylglycerol, RapidFire-mass spectrometry)
# Assay type: biochemical
# Conditions: MAGL inhibitory rate, test compound 10 μM, 60 min preincubation, 2-arachidonylglycerol substrate
# Method in brief: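 Arachidonic acid formed was quantified by online solid-phase extraction and triple-quadrupole MS in negative SRM mode against a d8 internal standard. Reaction: recombinant His-hMAGL (7.5 ng/mL, pH 7.5 Tris buffer with Triton X-100 and BSA) plus 2-AG (5 μL of 150 μM stock) for 10 min at room temperature, quenched with 2% formic acid. Percent inhibition corrected for enzyme-free background.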
row,Structure (SMILES),inhibition at 10 µM [%]
1,"O=C1CCC2(CN(C(=O)c3sc4cc(-c5ccc(Cl)cc5F)ccc4c3Cl)C2)N1 [Example 225, 2-((3-chloro-6-(4-chloro-2-fluorophenyl)-1-benzothiophen-2-yl)carbonyl)-2,5-diazaspiro[3.4]octan-6-one]",99
2,"O=C1CCC2(CN(C(=O)c3sc4cc(-c5ccc(F)c(Cl)c5)ccc4c3Cl)C2)N1 [Example 226, 2-((3-chloro-6-(3-chloro-4-fluorophenyl)-1-benzothiophen-2-yl)carbonyl)-2,5-diazaspiro[3.4]octan-6-one]",99
3,"Cc1ccc(-c2ccc3c(Cl)c(C(=O)N4CC5(CCC(=O)N5)C4)sc3c2)cn1 [Example 227, 2-((3-chloro-6-(6-methylpyridin-3-yl)-1-benzothiophen-2-yl)carbonyl)-2,5-diazaspiro[3.4]octan-6-one]",99
4,"O=C1CCC2(CN(C(=O)c3sc4cc(-c5ccc(C(F)(F)F)nc5)ccc4c3Cl)C2)N1 [Example 228, 2-((3-chloro-6-(6-(trifluoromethyl)pyridin-3-yl)-1-benzothiophen-2-yl)carbonyl)-2,5-diazaspiro[3.4]octan-6-one]",87
5,"Cc1ncccc1-c1ccc2c(Cl)c(C(=O)N3CC4(CCC(=O)N4)C3)sc2c1 [Example 229, 2-((3-chloro-6-(2-methylpyridin-3-yl)-1-benzothiophen-2-yl)carbonyl)-2,5-diazaspiro[3.4]octan-6-one]",100
6,"O=C1CCC2(CN(C(=O)c3sc4cc(-c5cccnc5C(F)(F)F)ccc4c3Cl)C2)N1 [Example 230, 2-((3-chloro-6-(2-(trifluoromethyl)pyridin-3-yl)-1-benzothiophen-2-yl)carbonyl)-2,5-diazaspiro[3.4]octan-6-one]",100
7,"O=C1CCC2(CN(C(=O)c3sc4cc(-c5cnc(C(F)(F)F)nc5)ccc4c3Cl)C2)N1 [Example 231, 2-((3-chloro-6-(2-(trifluoromethyl)pyrimidin-5-yl)-1-benzothiophen-2-yl)carbonyl)-2,5-diazaspiro[3.4]octan-6-one]",97
8,"Cc1ccc(-c2ccc3c(Cl)c(C(=O)N4CC5(CCC(=O)N5)C4)sc3c2)s1 [Example 232, 2-((3-chloro-6-(5-methyl-2-thienyl)-1-benzothiophen-2-yl)carbonyl)-2,5-diazaspiro[3.4]octan-6-one]",99
9,"Cc1cc(-c2ccc3c(Cl)c(C(=O)N4CC5(CCC(=O)N5)C4)sc3c2)c(C)s1 [Example 233, 2-((3-chloro-6-(2,5-dimethyl-3-thienyl)-1-benzothiophen-2-yl)carbonyl)-2,5-diazaspiro[3.4]octan-6-one]",101
10,"Cc1sccc1-c1ccc2c(Cl)c(C(=O)N3CC4(CCC(=O)N4)C3)sc2c1 [Example 234, 2-((3-chloro-6-(2-methyl-3-thienyl)-1-benzothiophen-2-yl)carbonyl)-2,5-diazaspiro[3.4]octan-6-one]",101
11,"Cc1ccsc1-c1ccc2c(Cl)c(C(=O)N3CC4(CCC(=O)N4)C3)sc2c1 [Example 235, 2-((3-chloro-6-(3-methyl-2-thienyl)-1-benozthiophen-2-yl)carbonyl)-2,5-diazaspiro[3.4]octan-6-one]",100
12,"Cc1cscc1-c1ccc2c(Cl)c(C(=O)N3CC4(CCC(=O)N4)C3)sc2c1 [Example 236, 2-((3-chloro-6-(4-methyl-3-thienyl)-1-benzothiophen-2-yl)carbonyl)-2,5-diazaspiro[3.4]octan-6-one]",100
13,"O=C1CCC2(CN(C(=O)N3CCC(C(F)(c4ccccc4)c4ccccc4)CC3)C2)N1 [Example 237, 2-((4-(fluoro(diphenyl)methyl)piperidin-1-yl)carbonyl)-2,5-diazaspiro[3.4]octan-6-one]",101
14,"O=C1CCC2(CN(C(=O)c3sc4cc(C(F)(F)F)ccc4c3F)C2)N1 [Example 238, 2-((3-fluoro-6-(trifluoromethyl)-1-benzothiophen-2-yl)carbonyl)-2,5-diazaspiro[3.4]octan-6-one]",97
15,"O=C1CCC2(CN(C(=O)N3CCC(COc4ccc5c(c4)CCCC5)CC3)C2)N1 [Example 239, 2-((4-((5,6,7,8-tetrahydronaphthalen-2-yloxy)methyl)piperidin-1-yl)carbonyl)-2,5-diazaspiro[3.4]octan-6-one]",101
16,"O=C1NC2(CO1)CN(C(=O)N1CCC(COc3ccc(F)cc3Cl)CC1)C2 [Example 240, 2-((4-((2-chloro-4-fluorophenoxy)methyl)piperidin-1-yl)carbonyl)-7-oxa-2,5-diazaspiro[3.4]octan-6-one]",100
17,"O=C1NC2(CO1)CN(C(=O)c1sc3cc(C(F)(F)F)ccc3c1Cl)C2 [Example 241, 2-((3-chloro-6-(trifluoromethyl)-1-benzothiophen-2-yl)carbonyl)-7-oxa-2,5-diazaspiro[3.4]octan-6-one]",101

row,Structure (SMILES),inhibition at 10 µM [%]
1,"O=C1COCC2(CN(C(=O)c3sc4cc(C(F)(F)F)ccc4c3Cl)C2)N1 [Example 242, 2-((3-chloro-6-(trifluoromethyl)-1-benzothiophen-2-yl)carbonyl)-8-oxa-2,5-diazaspiro[3.5]nonan-6-one]",99
2,"O=C1COCC2(CN(C(=O)N3CCC(COc4ccc(F)cc4Cl)CC3)C2)N1 [Example 243, 2-((4-((2-chloro-4-fluorophenoxy)methyl)piperidin-1-yl)carbonyl)-8-oxa-2,5-diazaspiro[3.5]nonan-6-one]",100
3,"O=C1CCC2(CN(C(=O)N3CCC(C(F)(F)c4ccc(Cl)cc4Cl)CC3)C2)N1 [Example 244, 2-((4-((2,4-dichlorophenyl)(difluoro)methyl)piperidin-1-yl)carbonyl)-2,5-diazaspiro[3.4]octan-6-one]",100
4,"O=C1CCC2(CN(C(=O)c3sc4cc(Br)ccc4c3C3CC3)C2)N1 [Example 245, 2-((6-bromo-3-cyclopropyl-1-benzothiophen-2-yl)carbonyl)-2,5-diazaspiro[3.4]octan-6-one]",98
5,"O=C1CCC2(CN(C(=O)c3sc(-c4cccc(C5(C(F)(F)F)CC5)c4)cc3Cl)C2)N1 [Example 246, 2-((3-chloro-5-(3-(1-(trifluoromethyl)cyclopropyl)phenyl)-2-thienyl)carbonyl)-2,5-diazaspiro[3.4]octan-6-one]",100
6,"O=C1CCC2(CN(C(=O)c3sc(-c4ccc(C5(C(F)(F)F)CC5)cc4)cc3Cl)C2)N1 [Example 247, 2-((3-chloro-5-(4-(1-(trifluoromethyl)cyclopropyl)phenyl)-2-thienyl)carbonyl)-2,5-diazaspiro[3.4]octan-6-one]",100
7,"O=C1CCC2(CN(C(=O)c3sc(-c4cccc(OC(F)(F)F)c4)cc3Cl)C2)N1 [Example 248, 2-((3-chloro-5-(3-(trifluoromethoxy)phenyl)-2-thienyl)carbonyl)-2,5-diazaspiro[3.4]octan-6-one]",95
8,"O=C1CCC2(CN(C(=O)c3sc(-c4ccc(OC(F)(F)F)cc4)cc3Cl)C2)N1 [Example 249, 2-((3-chloro-5-(4-(trifluoromethoxy)phenyl)-2-thienyl)carbonyl)-2,5-diazaspiro[3.4]octan-6-one]",93
9,"O=C1CCC2(CN(C(=O)c3cc4cc(Br)ccc4s3)C2)N1 [Example 250, 2-((5-bromo-1-benzothiophen-2-yl)carbonyl)-2,5-diazaspiro[3.4]octan-6-one]",86
10,"O=C1CCC2(CN(C(=O)c3sc4cc(OC(F)(F)F)cc(F)c4c3Cl)C2)N1 [Example 251, 2-((3-chloro-4-fluoro-6-(trifluoromethoxy)-1-benzothiophen-2-yl)carbonyl)-2,5-diazaspiro[3.4]octan-6-one]",99
11,"O=C1CCC2(CN(C(=O)c3cc4cc(OC(F)(F)F)ccc4s3)C2)N1 [Example 252, 2-((5-(trifluoromethoxy)-1-benzothiophen-2-yl)carbonyl)-2,5-diazaspiro[3.4]octan-6-one]",98
12,"O=C1CCC2(CN(C(=O)c3sc4ccc(OC(F)(F)F)cc4c3Cl)C2)N1 [Example 253, 2-((3-chloro-5-(trifluoromethoxy)-1-benzothiophen-2-yl)carbonyl)-2,5-diazaspiro[3.4]octan-6-one]",99
13,"O=C1CCC2(CN(C(=O)c3sc4c(C(F)(F)F)cccc4c3Cl)C2)N1 [Example 255, 2-((3-chloro-7-(trifluoromethyl)-1-benzothiophen-2-yl)carbonyl)-2,5-diazaspiro[3.4]octan-6-one]",99
14,"O=C1CCC2(CN(C(=O)c3sc4ccc(C(F)(F)F)cc4c3Cl)C2)N1 [Example 256, 2-((3-chloro-5-(trifluoromethyl)-1-benzothiophen-2-yl)carbonyl)-2,5-diazaspiro[3.4]octan-6-one]",99
15,"O=C1NC2(CO1)CN(C(=O)c1sc3c(C(F)(F)F)cccc3c1Cl)C2 [Example 257, 2-((3-chloro-7-(trifluoromethyl)-1-benzothiophen-2-yl)carbonyl)-7-oxa-2,5-diazaspiro[3.4]octan-6-one]",100
16,"O=C1NC2(CO1)CN(C(=O)c1sc3ccc(C(F)(F)F)cc3c1Cl)C2 [Example 258, 2-((3-chloro-5-(trifluoromethyl)-1-benzothiophen-2-yl)carbonyl)-7-oxa-2,5-diazaspiro[3.4]octan-6-one]",100

# Reference: US10610520B2, “Heterocyclic compound” (Takeda Pharmaceutical Company Limited, priority 2016, dated 2020)
